Experimental data: the NIST ThermoML archive (doi:10.1016/j.fluid.2008.06.003)
Numbers after ± are expanded uncertainties.

Key:
[1] = 298.15 K, 101.33 kPa, Liquid
[2] = refractive index (Na D-line) (dimensionless); settings: 298.15 K; 101.33 kPa; Liquid; Standard Abbe refractometry

Compound	mass density [1] [kg/m3]	refractive index [2]	mass density ([1]; Vibrating tube method) [kg/m3]
CCCCCCCC[n+]1ccn(C)c1.F[P-](F)(F)(F)(F)F [1-octyl-3-methylimidazolium hexafluorophosphate]	–	1.42302 ± 0.001	1235.7 ± 8.3
CCCCCCn1cc[n+](C)c1.F[P-](F)(F)(F)(F)F [1-hexyl-3-methylimidazolium hexafluorophosphate]	–	1.41787 ± 0.001	1293.7 ± 9.1
CCCCCCC [heptane]	679.5 ± 1	1.38517 ± 0.00037	–

Further lines, with some results ahead:

mass density [1] [kg/m3]	refractive index [2]	Compound	mass density ([1]; Vibrating tube method) [kg/m3]
654.9 ± 1.1	1.37217 ± 0.00037	CCCCCC [hexane]	–
785.1 ± 0.5	1.35929 ± 0.00031	CCO [ethanol]	–
